Assay results taken from patent publication US12673975B2, “Cyclic peptide, cell scaffold material, cell separating material, and medium” (FUJIFILM Corporation, priority 2019, dated 2026).
Where two headings read alike, the source gives them in different places. Starred links: 1 amine or outer side, 2 acyl side, 3 side chain; linkers in the order of their positions; H or OH if unused. Positions of bridges follow the written chain, without caps; N, C: chain ends. Non-standard residues stand in square brackets, D forms with d. Residues, ends and D or L forms follow the SMILES beside them. Pen = CC(C)(S)[C@H](N)C(=O)O; hCys = N[C@@H](CCS)C(=O)O; Orn = NCCC[C@H](N)C(=O)O; Dab = NCC[C@H](N)C(=O)O; Dap = NC[C@H](N)C(=O)O; X1 = O=C(C[*:2])[*:1]; X2 = O=C(C[*:1])[*:2]

Experiments:
human integrin αvβ5 = human integrin αvβ5 (Homo sapiens, UniProt P06756+P18084); experiment: Evaluation of integrin binding property (surface plasmon resonance, Biacore 3000, immobilized cyclic peptide)
Sequence of human integrin αvβ5 (P06756 31-1048): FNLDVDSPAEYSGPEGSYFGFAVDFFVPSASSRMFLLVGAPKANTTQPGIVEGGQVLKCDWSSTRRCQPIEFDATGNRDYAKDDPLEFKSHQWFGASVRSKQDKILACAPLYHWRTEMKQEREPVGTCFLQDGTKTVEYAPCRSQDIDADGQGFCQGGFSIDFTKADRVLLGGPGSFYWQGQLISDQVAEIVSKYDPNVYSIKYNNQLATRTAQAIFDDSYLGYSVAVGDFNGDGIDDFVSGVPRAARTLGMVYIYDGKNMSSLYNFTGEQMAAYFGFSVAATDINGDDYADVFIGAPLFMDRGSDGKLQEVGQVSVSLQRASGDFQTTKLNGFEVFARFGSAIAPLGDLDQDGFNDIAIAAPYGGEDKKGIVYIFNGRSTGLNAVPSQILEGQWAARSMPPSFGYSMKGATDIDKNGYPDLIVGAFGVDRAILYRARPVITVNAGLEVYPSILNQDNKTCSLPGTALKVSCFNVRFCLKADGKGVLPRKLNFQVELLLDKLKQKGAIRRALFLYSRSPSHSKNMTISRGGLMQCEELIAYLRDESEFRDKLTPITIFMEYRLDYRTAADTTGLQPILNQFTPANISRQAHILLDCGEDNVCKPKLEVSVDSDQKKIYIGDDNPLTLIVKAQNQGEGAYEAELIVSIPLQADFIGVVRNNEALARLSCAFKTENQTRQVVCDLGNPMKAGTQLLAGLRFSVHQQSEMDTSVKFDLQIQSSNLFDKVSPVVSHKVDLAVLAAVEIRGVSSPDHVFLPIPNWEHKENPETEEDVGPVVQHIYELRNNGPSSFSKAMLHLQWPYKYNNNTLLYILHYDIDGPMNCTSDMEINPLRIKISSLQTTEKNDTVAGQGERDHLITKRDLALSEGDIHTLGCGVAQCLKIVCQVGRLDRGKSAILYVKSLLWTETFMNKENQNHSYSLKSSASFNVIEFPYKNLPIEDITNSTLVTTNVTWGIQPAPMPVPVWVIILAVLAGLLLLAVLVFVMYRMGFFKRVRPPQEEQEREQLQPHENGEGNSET
Sequence of human integrin αvβ5 (P18084 24-799): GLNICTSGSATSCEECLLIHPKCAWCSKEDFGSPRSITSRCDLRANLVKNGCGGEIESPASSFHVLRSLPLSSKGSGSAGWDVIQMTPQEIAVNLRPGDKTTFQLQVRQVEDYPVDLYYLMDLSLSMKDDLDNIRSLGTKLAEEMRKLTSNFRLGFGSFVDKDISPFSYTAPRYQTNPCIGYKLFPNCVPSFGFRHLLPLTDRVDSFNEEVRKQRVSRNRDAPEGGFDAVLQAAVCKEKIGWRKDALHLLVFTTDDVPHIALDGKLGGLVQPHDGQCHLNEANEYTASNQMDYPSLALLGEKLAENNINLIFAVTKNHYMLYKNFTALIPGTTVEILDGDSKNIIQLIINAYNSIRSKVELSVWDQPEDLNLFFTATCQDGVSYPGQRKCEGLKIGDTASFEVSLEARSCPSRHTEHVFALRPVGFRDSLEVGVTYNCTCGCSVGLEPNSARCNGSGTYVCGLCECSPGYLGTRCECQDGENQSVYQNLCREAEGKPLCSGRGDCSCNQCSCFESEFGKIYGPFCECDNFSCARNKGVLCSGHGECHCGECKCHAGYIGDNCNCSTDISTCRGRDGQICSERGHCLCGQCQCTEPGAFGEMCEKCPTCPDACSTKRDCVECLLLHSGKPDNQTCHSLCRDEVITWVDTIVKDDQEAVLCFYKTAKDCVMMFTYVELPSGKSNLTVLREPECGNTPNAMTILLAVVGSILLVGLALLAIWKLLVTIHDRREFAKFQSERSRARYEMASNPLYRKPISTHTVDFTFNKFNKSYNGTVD
Outline: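 SPR with cyclic peptide amine-coupled via EDC/NHS to a CM5 chip, blank channel as reference. Integrin αvβ5 at 30, 100, 300 and 1,000 nM injected 10 min at 25 °C in HEPES buffer pH 7.4 with 5 mM MgCl2, 30 min buffer flow, EDTA regeneration; Kd from reference-subtracted signals, graded by category.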

[1] = Evaluation of molecule stability (alkali treatment, residual rate by LC/MS); format: physicochemical; details: for Performance evaluation: Stability (residual rate of cyclic peptide after alkali treatment): 500 μM peptide aqueous solution plus equivalent of 1 M sodium hydroxide, 15° C., 3 hours, LC/MS peak area; for Stability (molecule stability, residual rate of the cyclic peptide rank): alkali treatment, residual rate by LC/MS
Outline: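 500 μM aqueous cyclic peptide mixed with an equal volume of 1 M NaOH and held 3 h at 15 °C. Residual rate is total LC/MS peak area after treatment relative to untreated (100%), using a C18 column, pH 3 ammonium formate/acetonitrile gradient, 45 °C, ESI±.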

[2] = SPR, 25° C., HEPES buffer with 5 mM magnesium chloride, integrin 30-1,000 nM, read-out: Performance evaluation: Binding activity (dissociation constant between the cyclic peptide and human integrin αvβ5)
[3] = surface plasmon resonance, immobilized cyclic peptide, human integrin αvβ5, read-out: Binding activity (integrin binding property, dissociation constant rank)

Row | SMILES | Kd (human integrin αvβ5; [2]) | Performance evaluation: Stability (residual rate of cyclic peptide after alkali treatment) [1] | Kd (human integrin αvβ5; [3]) | Stability (molecule stability, residual rate of the cyclic peptide rank) [1]
1 | CC[C@H](C)[C@@H]1NC(=O)[C@@H](NC(=O)[C@H](C)NC(=O)[C@H](CCCCN)NC(=O)[C@H](CCCCN)NC(=O)[C@@H](N)CCCCN)CCSCC(=O)NCC[C@@H](C(=O)N[C@@H](C)C(=O)O)NC(=O)[C@H](CCCNC(=N)N)NC(=O)[C@H](Cc2ccccc2)NC(=O)[C@H](C(C)C)NC(=O)[C@H](CC(=O)O)NC(=O)CNC(=O)[C@H](CCCNC(=N)N)NC(=O)[C@@H]2CCCN2C1=O [Cyclic peptide 78, KKKA-(Hcy)-IPRGDVFR(Dab(acetyl))A] (H-KKKA[hCys]IPRGDVFR[Dab]A-OH; linker 5-14 via X2) | < 0.05 µM | A (The residual rate of the cyclic peptide is 70% or more.) |  | 
2 | N=C(N)NCCC[C@@H]1NC(=O)[C@H](Cc2ccc(O)cc2)NC(=O)[C@H](CC(N)=O)NC(=O)[C@H](CC(=O)O)NC(=O)CNC(=O)[C@H](CCCNC(=N)N)NC(=O)[C@@H]2CCCN2C(=O)[C@H](CCC(=O)O)NC(=O)[C@@H](NC(=O)[C@H](CCC(=O)O)NC(=O)[C@H](CCCCN)NC(=O)[C@H](CCCCN)NC(=O)[C@@H](N)CCCCN)CCSCC(=O)NCC[C@@H](C(=O)N[C@@H](CC(=O)O)C(=O)O)NC1=O [Cyclic peptide 39, KKKE-(Hcy)-EPRGDNYR(Dab(acetyl))D] (H-KKKE[hCys]EPRGDNYR[Dab]D-OH; linker 5-14 via X2) | < 0.05 µM | A (The residual rate of the cyclic peptide is 70% or more.) |  | 
3 | C[C@H](NC(=O)[C@@H]1CCNC(=O)CSCC[C@H](NC(=O)[C@H](C)NC(=O)[C@H](CCCCN)NC(=O)[C@H](CCCCN)NC(=O)[C@@H](N)CCCCN)C(=O)N[C@@H](CCC(=O)O)C(=O)N2CCC[C@H]2C(=O)N[C@@H](CCCNC(=N)N)C(=O)NCC(=O)N[C@@H](CC(=O)O)C(=O)N[C@@H](CC(N)=O)C(=O)N[C@@H](Cc2ccc(O)cc2)C(=O)N[C@@H](CCCNC(=N)N)C(=O)N1)C(=O)O [Cyclic peptide 41, KKKA-(Hcy)-EPRGDNYR(Dab(acetyl))A] (H-KKKA[hCys]EPRGDNYR[Dab]A-OH; linker 5-14 via X2) | 0.05 to 0.1 µM | A (The residual rate of the cyclic peptide is 70% or more.) |  | 
4 | CC[C@H](C)[C@@H]1NC(=O)[C@@H](NC(=O)[C@H](C)NC(=O)[C@H](CCCCN)NC(=O)[C@H](CCCCN)NC(=O)[C@@H](N)CCCCN)CCSCC(=O)NCC[C@@H](C(=O)N[C@@H](C)C(=O)O)NC(=O)[C@H](C)NC(=O)[C@H](Cc2ccccc2)NC(=O)[C@H](C)NC(=O)[C@H](CC(=O)O)NC(=O)CNC(=O)[C@H](CCCNC(=N)N)NC(=O)[C@@H]2CCCN2C1=O [Cyclic peptide 90, KKKA-(Hcy)-IPRGDAFA(Dab(acetyl))A] (H-KKKA[hCys]IPRGDAFA[Dab]A-OH; linker 5-14 via X2) | < 0.05 µM | A (The residual rate of the cyclic peptide is 70% or more.) |  | 
5 | C[C@H](NC(=O)[C@H](CCCCN)NC(=O)[C@H](CCCCN)NC(=O)[C@@H](N)CCCCN)C(=O)N[C@H]1CNC(=O)CSCC[C@@H](C(N)=O)NC(=O)[C@H](CCCNC(=N)N)NC(=O)[C@H](Cc2ccc(O)cc2)NC(=O)[C@H](CC(N)=O)NC(=O)[C@H](CC(=O)O)NC(=O)CNC(=O)[C@H](CCCNC(=N)N)NC(=O)[C@@H]2CCCN2C(=O)[C@H](CCC(=O)O)NC1=O [Cyclic peptide 53, KKKA(Dap(acetyl))EPRGDNYR-(Hcy)] (H-KKKA[Dap]EPRGDNYR[hCys]-NH2; linker 5-14 via X1) | 0.05 to 0.1 µM | B (The residual rate of the cyclic peptide is 50% or more and less than 70%.) |  | 
6 | CC[C@H](C)[C@@H]1NC(=O)[C@@H](NC(=O)[C@H](CCCCN)NC(=O)[C@H](CCCCN)NC(=O)[C@@H](N)CCCCN)CCSCC(=O)NCC[C@@H](C(=O)O)NC(=O)[C@H](C)NC(=O)[C@H](Cc2ccccc2)NC(=O)[C@H](CO)NC(=O)[C@H](CC(=O)O)NC(=O)CNC(=O)[C@H](CCCNC(=N)N)NC(=O)[C@@H]2CCCN2C1=O [Cyclic peptide 101, KKK-(Hcy)-IPRGDSFA(Dab(acetyl))] (H-KKK[hCys]IPRGDSFA[Dab]-OH; linker 4-13 via X2) |  |  | < 0.05 µM | A (The residual rate of the cyclic peptide is 70% or more.)
7 | CC[C@H](C)[C@@H]1NC(=O)[C@@H](NC(=O)CNC(=O)[C@H](CCCCN)NC(=O)[C@H](CCCCN)NC(=O)[C@@H](N)CCCCN)CCCNC(=O)CSC(C)(C)[C@@H](C(=O)N[C@@H](C)C(=O)O)NC(=O)[C@H](CCCNC(=N)N)NC(=O)[C@H](Cc2ccccc2)NC(=O)[C@H]([C@@H](C)O)NC(=O)[C@H](CC(=O)O)NC(=O)CNC(=O)[C@H](CCCNC(=N)N)NC(=O)[C@@H]2CCCN2C1=O [Cyclic peptide 134, KKKG(Orn(acetyl))IPRGDTFR-(Pen)-A] (H-KKKG[Orn]IPRGDTFR[Pen]A-OH; linker 5-14 via X1) |  |  | < 0.05 µM | A (The residual rate of the cyclic peptide is 70% or more.)
8 | CC(C)[C@@H]1NC(=O)[C@@H](NC(=O)[C@H](CCCCN)NC(=O)[C@H](CCCCN)NC(=O)[C@@H](N)CCCCN)CCSCC(=O)NCC[C@@H](C(=O)O)NC(=O)CNC(=O)[C@H](Cc2ccccc2)NC(=O)[C@H]([C@@H](C)O)NC(=O)[C@H](CC(=O)O)NC(=O)CNC(=O)[C@H](CCCNC(=N)N)NC(=O)[C@@H]2CCCN2C1=O [Cyclic peptide 152, KKK-(Hcy)-VPRGDTFG(Dab(acetyl))] (H-KKK[hCys]VPRGDTFG[Dab]-OH; linker 4-13 via X2) |  |  | < 0.05 µM | A (The residual rate of the cyclic peptide is 70% or more.)
9 | CC[C@H](C)[C@@H]1NC(=O)[C@@H](NC(=O)CNC(=O)[C@H](CCCCN)NC(=O)[C@H](CCCCN)NC(=O)[C@@H](N)CCCCN)CCSCC(=O)NCC[C@@H](C(=O)NCC(=O)O)NC(=O)[C@H](C)NC(=O)[C@H](Cc2ccccc2)NC(=O)[C@H]([C@@H](C)O)NC(=O)[C@H](CC(=O)O)NC(=O)CNC(=O)[C@H](CCCNC(=N)N)NC(=O)[C@@H]2CCCN2C1=O [Cyclic peptide 84, KKKG-(Hcy)-IPRGDTFA(Dab(acetyl))G] (H-KKKG[hCys]IPRGDTFA[Dab]G-OH; linker 5-14 via X2) | < 0.05 µM | A (The residual rate of the cyclic peptide is 70% or more.) |  | 
10 | CC(C)C[C@@H]1NC(=O)[C@@H](NC(=O)[C@H](C)NC(=O)[C@H](CCCCN)NC(=O)[C@H](CCCCN)NC(=O)[C@@H](N)CCCCN)CCSCC(=O)NCC[C@@H](C(=O)N[C@@H](CC(=O)O)C(=O)O)NC(=O)[C@H](CCCNC(=N)N)NC(=O)[C@H](Cc2ccc(O)cc2)NC(=O)[C@H](CC(N)=O)NC(=O)[C@H](CC(=O)O)NC(=O)CNC(=O)[C@H](CCCNC(=N)N)NC(=O)[C@@H]2CCCN2C1=O [Cyclic peptide 31, KKKA-(Hcy)-LPRGDNYR(Dab(acetyl))D] (H-KKKA[hCys]LPRGDNYR[Dab]D-OH; linker 5-14 via X2) | < 0.05 µM | A (The residual rate of the cyclic peptide is 70% or more.) |  | 
11 | CC[C@H](C)[C@@H]1NC(=O)[C@@H](NC(=O)[C@H](CCCCN)NC(=O)[C@H](CCCCN)NC(=O)[C@@H](N)CCCCN)CCSCC(=O)NCC[C@@H](C(=O)NCC(=O)O)NC(=O)[C@H](CCCNC(=N)N)NC(=O)[C@H](Cc2ccccc2)NC(=O)[C@H](CC(N)=O)NC(=O)[C@H](CC(=O)O)NC(=O)CNC(=O)[C@H](CCCNC(=N)N)NC(=O)[C@@H]2CCCN2C1=O [Cyclic peptide 4, KKK-(Hcy)-IPRGDNFR(Dab(acetyl))G] (H-KKK[hCys]IPRGDNFR[Dab]G-OH; linker 4-13 via X2) | < 0.05 µM | A (The residual rate of the cyclic peptide is 70% or more.) |  | 
12 | CC[C@H](C)[C@@H]1NC(=O)[C@@H](NC(=O)[C@H](CCCCN)NC(=O)[C@H](CCCCN)NC(=O)[C@@H](N)CCCCN)CCSCC(=O)NCC[C@@H](C(=O)O)NC(=O)[C@H](Cc2ccccc2)NC(=O)[C@H](C(C)C)NC(=O)[C@H](CC(=O)O)NC(=O)CNC(=O)[C@H](CCCNC(=N)N)NC(=O)[C@@H]2CCCN2C1=O [Cyclic peptide 65, KKK-(Hcy)-IPRGDVF(Dab(acetyl))] (H-KKK[hCys]IPRGDVF[Dab]-OH; linker 4-12 via X2) | 0.05 to 0.1 µM | A (The residual rate of the cyclic peptide is 70% or more.) |  | 
13 | CC(C)[C@@H]1NC(=O)[C@@H](NC(=O)[C@H](CCCCN)NC(=O)[C@H](CCCCN)NC(=O)[C@@H](N)CCCCN)CCNC(=O)CSC[C@@H](C(=O)O)NC(=O)[C@H](C)NC(=O)[C@H](Cc2ccccc2)NC(=O)[C@H]([C@@H](C)O)NC(=O)[C@H](CC(=O)O)NC(=O)CNC(=O)[C@H](CCCNC(=N)N)NC(=O)[C@@H]2CCCN2C1=O [Cyclic peptide 141, KKK(Dab(acetyl))VPRGDTFA(C)] (H-KKK[Dab]VPRGDTFAC-OH; linker 4-13 via X1) |  |  | < 0.05 µM | C (The residual rate of the cyclic peptide is 30% or more and less than 50%.)
